Molecular target: recombinant human HPK1 (Homo sapiens (Human), UniProt Q92918)
Assay: HPK1 kinase assay (ADP-Glo)
Assay type: biochemical
Conditions: 25 μM ATP, MBP substrate
Procedure, shortened: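 Activity was read as ADP formed, detected by ADP-Glo luminescence after the reaction of 5 ng recombinant human HPK1 with MBP and ATP (stocks 0.5 μg/μl and 25 μM) for 40 min at 30 °C. Buffer was Tris pH 7.5 with MgCl2, BSA and DTT, with compound in 0.5% DMSO. IC50 came from inhibition curves.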

Chain of recombinant human HPK1 (Q92918 whole entry): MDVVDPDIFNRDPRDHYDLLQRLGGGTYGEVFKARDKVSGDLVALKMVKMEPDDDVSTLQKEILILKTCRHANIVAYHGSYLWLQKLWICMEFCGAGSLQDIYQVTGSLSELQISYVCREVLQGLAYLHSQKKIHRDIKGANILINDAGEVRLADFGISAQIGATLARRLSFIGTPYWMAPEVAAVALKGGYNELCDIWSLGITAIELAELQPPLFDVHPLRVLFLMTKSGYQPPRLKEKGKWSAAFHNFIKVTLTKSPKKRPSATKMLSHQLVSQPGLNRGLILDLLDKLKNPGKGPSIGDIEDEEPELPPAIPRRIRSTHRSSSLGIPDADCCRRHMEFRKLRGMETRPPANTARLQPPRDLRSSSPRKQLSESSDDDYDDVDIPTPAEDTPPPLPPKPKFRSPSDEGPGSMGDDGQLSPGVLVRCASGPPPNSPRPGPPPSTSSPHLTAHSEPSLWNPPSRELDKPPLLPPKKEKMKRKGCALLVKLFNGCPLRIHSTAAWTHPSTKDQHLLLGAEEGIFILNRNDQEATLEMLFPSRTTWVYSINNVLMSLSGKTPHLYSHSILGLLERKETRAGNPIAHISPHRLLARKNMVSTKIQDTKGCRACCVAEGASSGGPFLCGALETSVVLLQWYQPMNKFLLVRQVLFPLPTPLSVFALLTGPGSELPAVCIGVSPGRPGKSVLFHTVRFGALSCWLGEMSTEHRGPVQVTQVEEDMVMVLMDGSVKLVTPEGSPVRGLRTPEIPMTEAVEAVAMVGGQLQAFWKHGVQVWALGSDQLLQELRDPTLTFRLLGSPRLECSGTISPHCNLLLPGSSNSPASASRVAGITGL

Row | Structure (SMILES) | IC50 [nM]
1 | CN(Nc1c(F)c(Cl)c(-c2ccc3nc(NC(=O)[C@@H]4C[C@@H]4F)cn3c2)c2cn[nH]c12)C(=O)OC(C)(C)C [Example 309, tert-butyl 2-(5-chloro-6-fluoro-4-(2-((1S,2S)-2-fluorocyclopropane-1-carboxamido)imidazo[1,2-a]pyridin-6-yl)-1H-indazol-7-yl)-1-methylhydrazine-1-carboxylate] | < 100
2 | CCOc1c(F)c(SC)c(-c2ccc3nc(NC(=O)[C@@H]4C[C@@H]4F)cn3c2)c2cn[nH]c12 [Example 310, (1S,2S)-N-(6-(7-ethoxy-6-fluoro-5-(methylthio)-1H-indazol-4-yl)imidazo[1,2-a]pyridin-2-yl)-2-fluorocyclopropane-1-carboxamide] | < 100
3 | CNC(=O)OCCSc1c(F)c(C)c(-c2ccc3nc(NC(=O)[C@@H]4C[C@@H]4F)cn3c2)c2cn[nH]c12 [Example 312, 2-((6-fluoro-4-(2-((1S,2S)-2-fluorocyclopropane-1-carboxamido)imidazo[1,2-a]pyridin-6-yl)-5-methyl-1H-indazol-7-yl)thio)ethyl methylcarbamate] | < 100
4 | Cc1c(F)c(C(=O)O)c2[nH]ncc2c1-c1ccc2nc(NC(=O)[C@@H]3C[C@@H]3F)cn2c1 [Example 313, 6-fluoro-4-(2-((1S,2S)-2-fluorocyclopropane-1-carboxamido)imidazo[1,2-a]pyridin-6-yl)-5-methyl-1H-indazole-7-carboxylic acid] | > 1000
5 | O=C(O)c1c(F)c(Cl)c(-c2ccc3nc(NC(=O)[C@@H]4C[C@@H]4F)cn3c2)c2cn[nH]c12 [Example 314, 5-chloro-6-fluoro-4-(2-((1S,2S)-2-fluorocyclopropane-1-carboxamido)imidazo[1,2-a]pyridin-6-yl)-1H-indazole-7-carboxylic acid] | > 1000
6 | COC(=O)c1c(F)c(Cl)c(-c2ccc3nc(NC(=O)[C@@H]4C[C@@H]4F)cn3c2)c2cn[nH]c12 [Example 315, methyl 5-chloro-6-fluoro-4-(2-((1S,2S)-2-fluorocyclopropane-1-carboxamido)imidazo[1,2-a]pyridin-6-yl)-1H-indazole-7-carboxylate] | < 100
7 | CNNc1c(F)c(Cl)c(-c2ccc3nc(NC(=O)[C@@H]4C[C@@H]4F)cn3c2)c2cn[nH]c12 [Example 317, (1S,2S)-N-(6-(5-chloro-6-fluoro-7-(2-methylhydrazineyl)-1H-indazol-4-yl)imidazo[1,2-a]pyridin-2-yl)-2-fluorocyclopropane-1-carboxamide] | < 100
8 | CCOc1c(F)c(CC)c(-c2ccc3nc(NC(=O)[C@@H]4C[C@@H]4F)cn3c2)c2cn[nH]c12 [Example 318, (1S,2S)-N-(6-(7-ethoxy-5-ethyl-6-fluoro-1H-indazol-4-yl)imidazo[1,2-a]pyridin-2-yl)-2-fluorocyclopropane-1-carboxamide] | < 100
9 | CC(=O)c1c(F)c(Cl)c(-c2ccc3nc(NC(=O)[C@@H]4C[C@@H]4F)cn3c2)c2cn[nH]c12 [Example 319, (1S,2S)-N-(6-(7-acetyl-5-chloro-6-fluoro-1H-indazol-4-yl)imidazo[1,2-a]pyridin-2-yl)-2-fluorocyclopropane-1-carboxamide] | < 100
10 | CNC(=O)c1c(F)c(Cl)c(-c2ccc3nc(NC(=O)[C@@H]4C[C@@H]4F)cn3c2)c2cn[nH]c12 [Example 321, 5-chloro-6-fluoro-4-(2-((1S,2S)-2-fluorocyclopropane-1-carboxamido)imidazo[1,2-a]pyridin-6-yl)-N-methyl-1H-indazole-7-carboxamide] | < 100
11 | CC(=O)c1c(F)c(C)c(-c2ccc3nc(NC(=O)[C@@H]4C[C@@H]4F)cn3c2)c2cn[nH]c12 [Example 322, (1S,2S)-N-(6-(7-acetyl-6-fluoro-5-methyl-1H-indazol-4-yl)imidazo[1,2-a]pyridin-2-yl)-2-fluorocyclopropane-1-carboxamide] | 101 to 500
12 | O=C(Nc1cn2cc(-c3c(Cl)c(F)c(F)c4[nH]ncc34)ccc2n1)[C@@H]1C[C@@H]1F [Example 323, (1S,2S)-N-(6-(5-chloro-6,7-difluoro-1H-indazol-4-yl)imidazo[1,2-a]pyridin-2-yl)-2-fluorocyclopropane-1-carboxamide] | < 100
13 | NC(=O)c1c(F)c(Cl)c(-c2ccc3nc(NC(=O)[C@@H]4C[C@@H]4F)cn3c2)c2cn[nH]c12 [Example 325, 5-chloro-6-fluoro-4-(2-((1S,2S)-2-fluorocyclopropane-1-carboxamido)imidazo[1,2-a]pyridin-6-yl)-1H-indazole-7-carboxamide] | > 1000
14 | CCOc1c(F)cc2[nH]ncc2c1-c1ccc2nc(NC(=O)[C@@H]3C[C@@H]3F)cn2c1 [Example 328, (1S,2S)-N-(6-(5-ethoxy-6-fluoro-1H-indazol-4-yl)imidazo[1,2-a]pyridin-2-yl)-2-fluorocyclopropane-1-carboxamide] | < 100
15 | O=C(Nc1cn2cc(-c3c(Cl)c(F)c(C(F)F)c4[nH]ncc34)ccc2n1)[C@@H]1C[C@@H]1F [Example 331, (1S,2S)-N-(6-(5-chloro-7-(difluoromethyl)-6-fluoro-1H-indazol-4-yl)imidazo[1,2-a]pyridin-2-yl)-2-fluorocyclopropane-1-carboxamide] | < 100
16 | CN(C)c1c(F)cc(-c2ccc3nc(NC(=O)[C@@H]4C[C@@H]4F)cn3c2)c2cn[nH]c12 [Example 335, (1S,2S)-N-(6-(7-(dimethylamino)-6-fluoro-1H-indazol-4-yl)imidazo[1,2-a]pyridin-2-yl)-2-fluorocyclopropane-1-carboxamide] | < 100
17 | O=C(Nc1cn2cc(-c3c(Cl)c(F)c(N4CCCC4=O)c4[nH]ncc34)ccc2n1)[C@@H]1C[C@@H]1F [Example 336, (1S,2S)-N-(6-(5-chloro-6-fluoro-7-(2-oxopyrrolidin-1-yl)-1H-indazol-4-yl)imidazo[1,2-a]pyridin-2-yl)-2-fluorocyclopropane-1-carboxamide] | < 100
18 | CN(c1ccccn1)c1c(F)c(Cl)c(-c2ccc3nc(NC(=O)[C@@H]4C[C@@H]4F)cn3c2)c2cn[nH]c12 [Example 337, (1S,2S)-N-(6-(5-chloro-6-fluoro-7-(methyl(pyridin-2-yl)amino)-1H-indazol-4-yl)imidazo[1,2-a]pyridin-2-yl)-2-fluorocyclopropane-1-carboxamide] | < 100
19 | CNC(=O)c1c(F)c(C)c(-c2ccc3nc(NC(=O)[C@@H]4C[C@@H]4F)cn3c2)c2cn[nH]c12 [Example 338, 6-fluoro-4-(2-((1S,2S)-2-fluorocyclopropane-1-carboxamido)imidazo[1,2-a]pyridin-6-yl)-N,5-dimethyl-1H-indazole-7-carboxamide] | 101 to 500
20 | CCc1c(F)c(C(F)(F)F)c2[nH]ncc2c1-c1ccc2nc(NC(=O)[C@@H]3C[C@@H]3F)cn2c1 [Example 339, (1S,2S)-N-(6-(5-ethyl-6-fluoro-7-(trifluoromethyl)-1H-indazol-4-yl)imidazo[1,2-a]pyridin-2-yl)-2-fluorocyclopropane-1-carboxamide] | < 100
21 | CSc1ccc(-c2ccc3nc(NC(=O)[C@@H]4C[C@@H]4F)cn3c2)c2cn[nH]c12 [Example 340, (1S,2S)-2-fluoro-N-(6-(7-(methylthio)-1H-indazol-4-yl)imidazo[1,2-a]pyridin-2-yl)cyclopropane-1-carboxamide] | 101 to 500
22 | CCN(C)C(=O)c1c(F)c(Cl)c(-c2ccc3nc(NC(=O)[C@@H]4C[C@@H]4F)cn3c2)c2cn[nH]c12 [Example 341, 5-chloro-N-ethyl-6-fluoro-4-(2-((1S,2S)-2-fluorocyclopropane-1-carboxamido)imidazo[1,2-a]pyridin-6-yl)-N-methyl-1H-indazole-7-carboxamide] | < 100
23 | CSc1c(F)cc(-c2ccc3nc(NC(=O)[C@@H]4C[C@@H]4F)cn3c2)c2cn[nH]c12 [Example 342, (1S,2S)-2-fluoro-N-(6-(6-fluoro-7-(methylthio)-1H-indazol-4-yl)imidazo[1,2-a]pyridin-2-yl)cyclopropane-1-carboxamide] | < 100
24 | Cc1c(F)c(C(F)F)c2[nH]ncc2c1-c1ccc2nc(NC(=O)[C@@H]3C[C@@H]3F)cn2c1 [Example 343, (1S,2S)-N-(6-(7-(difluoromethyl)-6-fluoro-5-methyl-1H-indazol-4-yl)imidazo[1,2-a]pyridin-2-yl)-2-fluorocyclopropane-1-carboxamide] | < 100
25 | O=C(Nc1cn2cc(-c3cc(F)c(OC(F)(F)F)c4[nH]ncc34)ccc2n1)[C@@H]1C[C@@H]1F [Example 344, (1S,2S)-2-fluoro-N-(6-(6-fluoro-7-(trifluoromethoxy)-1H-indazol-4-yl)imidazo[1,2-a]pyridin-2-yl)cyclopropane-1-carboxamide] | 101 to 500
26 | Cc1c(F)c(OC(F)(F)F)c2[nH]ncc2c1-c1ccc2nc(NC(=O)[C@@H]3C[C@@H]3F)cn2c1 [Example 345, (1S,2S)-2-fluoro-N-(6-(6-fluoro-5-methyl-7-(trifluoromethoxy)-1H-indazol-4-yl)imidazo[1,2-a]pyridin-2-yl)cyclopropane-1-carboxamide] | < 100
27 | CN(c1ncccn1)c1c(F)c(Cl)c(-c2ccc3nc(NC(=O)[C@@H]4C[C@@H]4F)cn3c2)c2cn[nH]c12 [Example 346, (1S,2S)-N-(6-(5-chloro-6-fluoro-7-(methyl(pyrimidin-2-yl)amino)-1H-indazol-4-yl)imidazo[1,2-a]pyridin-2-yl)-2-fluorocyclopropane-1-carboxamide] | < 100
28 | CN(CC(F)(F)F)C(=O)c1c(F)c(Cl)c(-c2ccc3nc(NC(=O)[C@@H]4C[C@@H]4F)cn3c2)c2cn[nH]c12 [Example 347, 5-chloro-6-fluoro-4-(2-((1S,2S)-2-fluorocyclopropane-1-carboxamido)imidazo[1,2-a]pyridin-6-yl)-N-methyl-N-(2,2,2-trifluoroethyl)-1H-indazole-7-carboxamide] | < 100
29 | CN(c1ccncn1)c1c(F)c(Cl)c(-c2ccc3nc(NC(=O)[C@@H]4C[C@@H]4F)cn3c2)c2cn[nH]c12 [Example 348, (1S,2S)-N-(6-(5-chloro-6-fluoro-7-(methyl(pyrimidin-4-yl)amino)-1H-indazol-4-yl)imidazo[1,2-a]pyridin-2-yl)-2-fluorocyclopropane-1-carboxamide] | < 100
